Series [1] can be described thus: Inhibition of deterioration (browning) of L-ascorbic acid in the presence of metal ion. It counts as physicochemical. Particulars: 50° C., sealed vial. The method, then: L-Ascorbic acid deteriorates rapidly by the oxidative degradation in the presence of iron and copper ions and causes browning. The effects of α-maltosyl α,α-trehalose on the phenomenon were investigated as follows. Five kinds of aqueous solutions, having respective compositions described in Table 8, were prepared. Aqueous solutions of L-ascorbic acid alone or L-ascorbic acid and metal ion compounds were used as controls. The test solutions were prepared by adding α-maltosyl α,α-trehalose to the control solutions. Ten milliliters of each of these test and control solutions were placed in different 20 ml-vials and sealed. The vials were preserved at 50° C. […] After the preservation, the degree of coloring of each solution was measured. In the case of the control solutions containing L-ascorbic acid alone, the degrees of coloring were measured at the preservation periods of 40 hours and 96 hours. The absorbance at 420 nm (within the visible light range) of each sample was measured for the degree of coloring.

Series [2] can be described thus: Hygroscopicity (deliquescence) test at relative humidity 52.8%. In kind it is physicochemical. On the procedure:
In order to compare the hygroscopicity (deliquescent property) of an associated complex of α-maltosyl α,α-trehalose and calcium chloride with that of a control, calcium chloride which is known to have a high deliquescent property, the following hygroscopicity test was carried out. The crystalline associated complexes of α-maltosyl α,α-trehalose and calcium chloride, prepared according to the method in Experiment 2-1 and calcium chloride dehydrate, were used as test samples. The moisture content (weight of moisture per one gram of the sample) of each sample was measured by conventional drying loss method. […] The amount of moisture per one gram of each sample after 1 to 7 days preservation was calculated based on the assumption that the increased amount measured to that of 0 day preservation was the amount of moisture absorbed by each sample.

A short description of series [3]: Inhibition of formation of calcium phosphate precipitate (solubilized calcium). In kind it is physicochemical. The settings on record: calcium chloride solution with saccharide mixed with phosphate solution pH 6.8, 37° C., three hours, supernatant, n=3. The method, then:
When phosphate ion is added to a calcium chloride aqueous solution, calcium phosphate, an insoluble salt, is formed from calcium ion and phosphate ion and then precipitated. Effects of α-maltosyl α,α-trehalose and other saccharides on the phenomenon were investigated as follows. A calcium chloride aqueous solution was prepared by the steps of adding 3.68 grams of calcium chloride dihydrate to deionized water to dissolve therein and adding deionized water to the solution to give a total volume of 200 ml. α-Maltosyl α,α-trehalose, prepared by the method in Experiment 1, maltotetraose, and anhydrous crystalline sucrose were used as saccharides for the test. […]
Twenty-six grams, d.s.b., of either of the saccharides for the test were added to five milliliters of the above calcium chloride solution and dissolved by adding additional deionized water. […] The calcium concentration (the solubilized calcium concentration) of each supernatant was measured using “ZEEMAN 5100”, an atomic adsorption-photometer commercialized by Perkin-Elmar Japan Co. Ltd., Kanagawa, Japan. […]
The above procedure was carried out for individual each sample (three kinds of saccharides and control) for three times and the average value of the solubilized calcium concentration was calculated.

The procedure of series [4]:
The changes of solubility in water of metal ion compounds were examined under coexistence of α-maltosyl α,α-trehalose and metal ion compounds. α-Maltosyl α,α-trehalose prepared by the method in Experiment 1 was used for the tests. […] Solutions prepared by dissolving the same amount of metal ion compounds only were prepared as controls. After dissolving the contents completely, all the beakers were allowed to stand at room temperature (25° C.) for 24 hours. Successively, precipitation of crystals was judged by macroscopic observation. In the case of precipitating crystals, the formed crystals were collected and analyzed for components by the conventional method.

As to `O=C1O[C@H]([C@@H](O)CO)C(O)=C1O` [14.8 mM AsA, L-ascorbic acid], the “Degree of coloring (Abs. at 420 nm), preserved for 40 hrs” value in series [1] (40 hrs) is on record as 0.012. In series [1] (96 hrs), the “Degree of coloring (Abs. at 420 nm), preserved for 96 hrs” value turned out to be 0.166.

Take `O.O.[Ca+2].[Cl-].[Cl-]` [CaCl2•2H2O, calcium chloride dihydrate]: in series [2] (25° C., relative humidity 52.8%, 1 day), the “Moisture content/g-sample, 1 day” value is recorded as 0.319 g. In series [2] (25° C., relative humidity 52.8%, 2 days), the “Moisture content/g-sample, 2 days” value came to 0.359 g. Besides, the “Moisture content/g-sample, 3 days” value in series [2] (25° C., relative humidity 52.8%, 3 days) was 0.405 g. Moreover, the “Moisture content/g-sample, 7 days” value in series [2] (25° C., relative humidity 52.8%, 7 days) was determined as 0.430 g. For the same molecule, the “Moisture content/g-sample, 0 day” value in series [2] (before preservation, drying loss method) worked out at 0.245 g.

On to `OC[C@H]1O[C@H](O[C@H]2[C@H](O)[C@@H](O)[C@@H](O[C@H]3[C@H](O)[C@@H](O)[C@@H](O[C@H]4[C@H](O)[C@@H](O)C(O)O[C@@H]4CO)O[C@@H]3CO)O[C@@H]2CO)[C@H](O)[C@@H](O)[C@@H]1O` (stereo partly shown) [Maltotetraose, maltotetraose], for which the “Concentration of solubilized calcium (average ± standard deviation)” value in series [3] was determined as 6910 ± 830 ng/mL.

On to `O.O.O.O.[Cl][Mn][Cl]` [Manganese chloride, manganese chloride tetrahydrate], for which, in series [4], the “Solubility in water in the presence of α-maltosyl α,α-trehalose” value is listed as “remarkably improved”.

`O.O.O.O.O.O.[Cl-].[Cl-].[Sr+2]` [Strontium chloride, Strontium chloride hexahydrate]: the “Precipitation of crystal, in the absence of α-maltosyl α,α-trehalose” value in series [4] (0.1 mole metal ion compound only in 30 g water, dissolved by heating, 25° C. for 24 hours, macroscopic observation) was “Precipitated”.

The values above are taken from US20070099869A1, “Association product of α-glycosyl α,α-trehalose with ionic metal compound” (KABUSHIKI KAISHA HAYASHIBARA SEIBUTSU KAGAKU KENKYUJO, priority 2003, published 2007).
